We go through three molecules from patent US20250002503A1, “OXADIAZASPIRO COMPOUNDS FOR USE IN THE TREATMENT OF MOTONEURON DEGENERATION OR IN NEUROPROTECTION” (ESTEVE PHARMACEUTICALS, S.A., priority 2021, published 2025).

One series concerns the target human Sig-1R (Homo sapiens, UniProt Q99720). Description: Affinity for the human Sig-1R. It is filed as binding. On the procedure: (§1) A selectivity profile (Spectrum Screen) including a panel with more than 180 binding assays for different receptors, ion channels, transporters and enzymes was performed for compound A and compound B at EurofinsPanlabs according to their specifications.

The target of another series is Sig-2R (Homo sapiens, UniProt Q5BJF2). Nature of the series: Affinity for the Sig-2R. It is filed as binding. As to conditions: not shown. On the procedure:
as §1

In series [1] the test system is motoneurons (MNs) in spinal cord organotypic cultures. Nature of the series: Spinal cord organotypic cultures (SCOCs) under THA chronic excitotoxicity, SMI-32 positive MN count. The series is classed as cell-based, Sprague-Dawley rats. Particulars: THA 100 μM, 28 DIV.
Description: Briefly, the spinal cord was collected and cut in 350 μm thick transverse sections with a Mcllwain Tissue Chopper. Four lumbar sections per sample were transferred onto Millicell-CM nets (0.4 μm, PICM03050, Millipore) in medium [50% (v/v) minimal essential medium (MEM, M5775, Sigma), 2 mM glutamine, 25 mM HEPES, 25% (v/v) Hank's Balanced Salt Solution (HBSS^−/−, 14175, Gibco) supplemented with 25.6 mg/ml glucose and 25% (v/v) heat-inactivated horse serum (26050-088, Gibco), pH=7.2]. Cultures were maintained at 37° C. in a 5% CO2 humidified cabin and let to stabilize. After 7 days in vitro (DIV), DL-threo-b-hydroxyaspartic acid (THA; 100 μM) was added to induce chronic excitotoxicity (Rothstein et al., 1993). The neuroprotective effect of each Sig-1R ligand was assessed by its coaddition to the culture with THA and renewing at each medium change. […] In vitro experiments were performed in three independent cultures, with at least 12 different SCOCs for each experimental condition.
Slices were maintained for 28 DIV and then fixed with 4% paraformaldehyde. […] MN survival was assessed by counting all SMI-32 positive neurons in each spinal cord using the Cell Counter plugin of ImageJ software.
Series [2] in a line: in vivo. More on the design: species or system male SOD1^G93A mice. Particulars: mouse, ip; for concentration at 15 min: male, SOD1^G93A. How it is done: Plasma levels were determined in the two in vivo models evaluated to be able to associate the pharmacological activity with the levels present in plasma. […] […] […] Results are expressed as mean±standard deviation (n=2-6).

Another series deals with SOD1^G93A mice. Particulars: for NMJ innervation (proportion of innervated endplates) of hindlimb muscle: SOD1^G93A mice at 16 weeks; for NMJ innervation (proportion of innervated endplates) of hindlimb muscle / astrocyte activation (GFAP) in ventral horn: compounds 5 mg/kg; for NMJ innervation (proportion of innervated endplates) of hindlimb muscle / CMAP amplitude of TA and plantar muscles / astrocyte activation (GFAP) in ventral horn: PRE-084 0.25 mg/kg i.p. bid; for CMAP amplitude of TA and plantar muscles / number of surviving spinal MNs per section / astrocyte activation (GFAP) in ventral horn: SOD1^G93A mice; for CMAP amplitude of TA and plantar muscles: 11 and 13 weeks, compound 5 mg/kg; for number of surviving spinal MNs per section: 16 weeks of age, mean±SEM; for astrocyte activation (GFAP) in ventral horn: 16 weeks. On the procedure:
Motor nerve conduction tests were performed before the surgery to obtain baseline values and at the end of the follow up in the rhizotomy model, whereas the SOD1^G93A mice were evaluated at 8 weeks (prior to starting drug administration) and then every 2-3 weeks until the end point at 16 weeks of age. The sciatic nerve was stimulated by means of single pulses delivered through needle electrodes placed at the sciatic notch. The compound muscle action potential (CMAP) was recorded from tibialis anterior (TA), gastrocnemius (GM) and plantar interossei muscles with microneedle electrodes (Mancuso et al., 2011). The CMAPs were amplified to measure the latency to the onset and the amplitude from baseline to the maximal negative peak. The mice were anesthetized with pentobarbital (50 mg/kg i.p.) and their body temperature was maintained by means of a thermostated warming pad.
For neuromuscular junctions (NMJ) labeling, 50 μm-thick longitudinal sections of TA muscle were serially cut. Sections were blocked with 5% normal donkey serum and incubated with primary antibodies rabbit anti-synaptophysin (1:500; AB32127, Abcam) and chicken anti-neurofilament 200 (NF200, 1:1000; AB5539, Millipore, USA) 48 h at 4° C. After washes, sections were incubated overnight with secondary antibody Alexa Fluor 594-donkey anti-rabbit and anti-chicken (1:200; A11042-A21207, Invitrogen, USA) and Alexa 488 conjugated α-bungarotoxin (1:500; B13422, Life Technologies, USA). Confocal images were captured (LSM 700 Axio Observer, Carl Zeiss, 40×Oil/z0.5) and the maximum projection images generated from 1.3 μm z projections. The proportion of innervated NMJs was calculated by classifying each endplate as occupied (when presynaptic terminals overly the endplate) or vacant (no presynaptic label in contact with the endplate). At least 60 endplates were analyzed per muscle.

Series [3] in a line: Pharmacokinetics in plasma and brain after single i.p. dose. Particulars: for half-life: t1/2 (terminal half-life); for half-life / AUC, brain / Cmax, brain / penetration into the brain: single i.p. 10 mg/kg; for half-life / AUC, brain / Cmax, brain: female mice; for penetration into the brain: mice.
Description: (§2) Blood and brain samples were extracted at selected time points (15 min, 1, 3 and 6 h) from two animals per sampling point. Blood samples were collected by intracardiac puncture into heparinized tubes. Plasma was obtained by blood centrifugation at 4° C. and 2280 g for 10 min. Plasma and brain samples were kept at −80° C. until analysis. Brains were homogenized with Dulbecco's phosphate saline buffer pH 7.4 (4 ml/g tissue). Plasma and brain samples were assayed by ultra-performance liquid chromatography-triple quadrupole mass spectrometry (UPLC-MS/MS) after protein precipitation. Standard pharmacokinetic parameters, such as the area under the curve (AUC), peak plasma concentration (Cmax), time to peak concentration (tmax), and terminal half-life (t1/2) were determined by noncompartmental analysis of the plasma and brain concentration-time curves (Phoenix v.6.2.1.51, Pharsight, CA).
The test system of series [4] is rhizotomized mice (L4-L5 spinal nerve section). Description: L4-L5 spinal roots injury (rhizotomy): MN survival, glial reactivity, tolerability. Particulars: for number of spinal MNs in the ipsilateral ventral horn (L4-L5) / astroglial reactivity, GFAP integrated density / microglial reactivity, IBA1 integrated density: 42 dpi, mean±SEM.
Description: Briefly, the L4-L5 spinal roots were exposed by a small laminectomy on the right side. Then, roots were cut at the exit from the intervertebral foramina and the root stumps were separated. Mice were cared until recovery in warm environment.
The compounds were dissolved in 0.5% hydroxypropyl-methylcellulose (HPMC; Sigma-Aldrich) in distilled water. The compounds were administered by intraperitoneal (i.p.) route twice daily (bid) in a volume of 10 ml/kg. Administrations were given from 30 min after rhizotomy surgery until 42 days post-injury (dpi), the end of the study; in the SOD1^G93A study, treatments were given from 8 to 16 weeks of age.
At the end of follow up (42 days post-injury (dpi)) for rhizotomy and 16 weeks of age for ALS mice) the animals were deeply anesthetized and transcardially perfused with 4% paraformaldehyde in PBS. The lumbar spinal cord and the TA muscle were harvested and cryopreserved in 30% sucrose solution in PB. The spinal cords were serially cut in 20 μm-thick transverse sections with a cryostat (Leica). For MN counting, L4-L5 spinal cord sections separated 100 μm were stained for 3 h with an acidified solution of 3.1 mM cresyl violet.
Finally, sides were mounted with Fluoromount G. To quantify glial cell reactivity, images of the ventral horn were acquired with an epifluorescence microscope (Nikon Eclipse Ni, Japan) using the same conditions for each analyzed marker. After defining a threshold for background correction, the integrated density of GFAP or Iba1 labeling was measured using ImageJ software.
The nature of series [5]: in vivo. As to conditions: female, C57-BL6, mouse, ip, 10 mg/kg; for half-life: t1/2 (terminal half-life).
Description: as §2
Series [6] is described as follows: Plasma levels in the rhizotomy model after chronic i.p. administration. Details: species or system female mice (B6SJL). As to conditions: mouse, in vivo, ip, 0.25 mg/kg.
The conditions of series [7]: cited from earlier work.
The mark [8] stands for this setting: 5 mg/kg i.p. bid, untreated 6.9±0.5, WT 25.3±0.5.
Where [9] appears, read: female, C57-BL6, mouse, brain, ip, 10 mg/kg.
[10] abbreviates: female, C57-BL6, mouse, plasma, ip, 10 mg/kg.
Setting [11] is: 0.5 mg/kg bid i.p., not significant.
Where [12] appears, read: 5 mg/kg bid i.p., untreated 19×10^4±5×10^4.
[13] abbreviates: 5 mg/kg bid i.p., untreated 26×10^4±3×10^4.
[14] abbreviates: twice daily i.p. administration for 6 weeks.

pIC50: −log10 of the molar value. Where two headings read alike, the source gives them in different places.

human Sig-1R, sequence (Q99720 whole entry): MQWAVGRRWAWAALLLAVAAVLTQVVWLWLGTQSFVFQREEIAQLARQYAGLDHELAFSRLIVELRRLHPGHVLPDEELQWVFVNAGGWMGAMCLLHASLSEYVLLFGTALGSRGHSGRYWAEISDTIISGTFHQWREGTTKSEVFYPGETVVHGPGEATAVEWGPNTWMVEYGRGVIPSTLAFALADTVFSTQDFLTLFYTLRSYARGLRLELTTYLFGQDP
Sig-2R, sequence (Q5BJF2 whole entry): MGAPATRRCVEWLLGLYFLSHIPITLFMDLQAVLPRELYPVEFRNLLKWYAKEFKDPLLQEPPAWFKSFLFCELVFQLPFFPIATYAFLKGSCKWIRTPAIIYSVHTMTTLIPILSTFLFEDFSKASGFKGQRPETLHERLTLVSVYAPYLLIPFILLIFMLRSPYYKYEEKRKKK

For `C[C@@H]1OC2(CCN(Cc3ccc(F)cc3)CC2)CN(C)C1=O` [Compound A, (S)-9-(4-fluorobenzyl)-2,4-dimethyl-1-oxa-4,9-diazaspiro[5.5]undecan-3-one], at human Sig-1R, the “affinity for the human Sig-1R” value is listed as “high affinity”. The molecule also showed a pIC50 at Sig-2R of less than 5.00. The “number of SMI-32 positive neurons vs THA condition” value in series [1] (tested at 0.03, 0.3, 3 and 30 μM, significant at three concentrations) is recorded as “significantly more SMI-32 positive neurons”. In the series “in vivo [2]” (5 mg/kg), the concentration at 15 min is approximately 500 ng/mL and the estimated brain concentration result is given as “about two-fold the concentration of compound B”. Moreover, in the series on SOD1^G93A mice, the “NMJ innervation (proportion of innervated endplates) of hindlimb muscle” value (from here on “NMJ innervation”) is given as “tendency to preserve NMJ innervation”; the “CMAP amplitude of TA and plantar muscles” value is on record as “significantly prevented the decline in amplitude of the CMAP”; the “astrocyte activation (GFAP) in ventral horn” value (“astrocyte activation (GFAP)” below) was “significant decrease of astrocyte activation”. In the series with SOD1^G93A mice (setting [8]), the “number of surviving spinal MNs per section” value (“number … per section” below) is 10.8±1.1. Besides, in series [3] (female, C57-BL6, mouse, brain and plasma, ip, 10 mg/kg), the Kp turned out to be 4.4. Further, in [3] (setting [9]), the Tmax was 0.25 h and the half-life was more than 5 h. In series [3] (setting [10]), the AUC came to 1120 ng·h/mL, the Cmax was found to be 1350 ng/mL, the Tmax stood at 0.25 h and the half-life was more than 5 h. Further, in series [3] (brain), the “AUC, brain” value stood at 4873 ng·h/g and the “Cmax, brain” value is 5405 ng/g. The “penetration into the brain” value in [3] is “good penetration into the brain”. For the same molecule, in [4] (setting [11]), the “number of spinal MNs in the ipsilateral ventral horn (L4-L5)” value (shortened to “number of spinal MNs”) is listed as 7.6±0.9. For the same molecule, in [4] (setting [12]), the “astroglial reactivity, GFAP integrated density” value (“astroglial reactivity” for short) is 4×10^4±0.4×10^4. Also, in [4] (setting [13]), the “microglial reactivity, IBA1 integrated density” value (“microglial reactivity” below) is given as 13×10^4±2×10^4. In series [4] (5 mg/kg/bid i.p. for 6 weeks, untreated injured 6.8±0.3), the “number of spinal MNs” value was 8.6±0.6. Besides, the “toxicity on chronic administration” value in [4] (setting [14]) is recorded as “did not cause toxicity”.

As to `CCN1CC2(CCN(Cc3ccc(C#N)c(F)c3)CC2)O[C@@H](C)C1=O` [Compound B, (S)-4-((4-ethyl-2-methyl-3-oxo-1-oxa-4,9-diazaspiro[5.5]undecan-9-yl)methyl)-2-fluorobenzonitrile], the “affinity for the human Sig-1R” value at human Sig-1R is “high affinity”. Further, at Sig-2R, the pIC50 was less than 5.00. In series [1] (3 and 30 μM), the “preservation of MNs (SMI-32 positive) vs THA condition” value is listed as “significantly preserved MNs”. The concentration at 15 min in the series “in vivo [2]” (5 mg/kg) was approximately 500 ng/mL. For the same molecule, in the series with SOD1^G93A mice, the “NMJ innervation” value is reported as “tendency to preserve NMJ innervation” and the “astrocyte activation (GFAP)” value is “significant decrease of astrocyte activation”. Besides, the “number … per section” value in the series with SOD1^G93A mice (setting [8]) is on record as 8.5±1.0. Further, in the series “in vivo [5]”, the AUC is 802 ng·h/mL, the peak level (Cmax) was 1340 ng/mL, the Kp is 2.1 and the Tmax came out at 0.25 h. In the series “in vivo [5]” (brain), the half-life was 3.4 h. In “in vivo [5]” (plasma), this molecule showed a half-life of 2.2 h. Besides, in series [3] (brain), the “AUC, brain” value was found to be 1698 ng·h/g and the “Cmax, brain” value was found to be 2652 ng/g. Moreover, the “penetration into the brain” value in [3] is “good penetration into the brain”. In addition, the “number of spinal MNs” value in [4] (setting [11]) came out at 7.4±0.7. Also, the “astroglial reactivity” value in [4] (setting [12]) is given as 15×10^4±2.7×10^4. In series [4] (setting [13]), the “microglial reactivity” value is reported as 25×10^4±4×10^4. For the same molecule, in series [4] (setting [14]), the “body weight compared with the vehicle group” value is reported as “no difference in body weight” and the “toxicity on chronic administration” value is “did not cause toxicity”.

Consider `O=C(OCCN1CCOCC1)C1(c2ccccc2)CCCCC1` [PRE-084, reference compound], for which the “affinity for the human Sig-1R” value at human Sig-1R is on record as “good affinity”. Besides, the “Plasma concentration 30 min post-administration” value in series [6] came to 3.6 ng/mL. Moreover, the “Plasma concentration 30 min post-administration” value in “in vivo [2]” (0.25 mg/kg) came to 2.6 ng/mL. In the series on SOD1^G93A mice, the “NMJ innervation” value is recorded as “significantly increased the proportion of innervated endplates”; the “CMAP amplitude of TA and plantar muscles” value is reported as “higher CMAP amplitude values”; the “astrocyte activation (GFAP)” value is on record as “significant decrease of astrocyte activation”. For the same molecule, the “number … per section” value with SOD1^G93A mice (0.25 mg/kg i.p. bid) stood at 12.4±0.9. Also, in [7] (mouse, in vivo, ip, 10 mg/kg), the “Cmax, plasma” value is 659 ng/mL. Further, the “Cmax, brain” value in [7] (single i.p. 10 mg/kg, concentration at 5 min post-administration, brain) is 774 ng/g. Also, in [4] (0.25 mg/kg bid i.p.), the “astroglial reactivity” value is on record as 6×10^4±0.9×10^4 and the “microglial reactivity” value is reported as 15×10^4±1.4×10^4. Further, the “number of spinal MNs” value in series [4] (0.25 mg/kg bid i.p., positive control) turned out to be 8.9±0.4.
